These results are taken from patent US20240417410A1, “TRICYCLIC COMPOUNDS FOR THE TREATMENT OF CANCER” (Hoffmann-La Roche Inc., priority 2023, published 2024).

One series concerns human hepatocytes. The experiment in a line: Human hepatocyte stability assay. The class given is in vitro ADME. To be noted: 1 μM compound, human hepatocytes 1×10^6 cells/mL. The procedure: The hepatocyte stability assay measures the rate of disappearance of a compound from incubations with cryopreserved suspension hepatocytes from human. Positive controls, including Midazolam, Raloxifene and Dextromethorphan, are included in every experiment. Incubations consist of 1 μM tested compound and suspension of human hepatocytes (1×10^6 cells/mL) in supplemented Williams' E Medium with 10% FBS and 0.5% Penicillin-streptomycin. The hepatocyte suspension was incubated with intermittent shaking 900 rpm at 37° C., in a 5% CO2 incubator. The reaction was stopped by adding methanol containing internal standard (2 μM Tolbutamide) at 2, 10, 20, 40, 60 and 120 minutes after compound addition, depletion of the parent compound was monitored by LC-MS/MS analysis.

For the next series, the target named is KRAS G12V-BRAF complex (Homo sapiens (Human), UniProt P01116+P62937, G12V). The experiment in a line: KRAS G12V-BRAF with CYPA interaction assay (TR-FRET, selectivity test, Example 132). The format is biochemical. The procedure: (§1) In this example, TR-FRET was used to measure the compound or compound-CYPA dependent disruption of the KRAS G12V-BRAF complex to assess inhibition efficacy. The IC50 ratio between WT KRAS/HRAS/NRAS and KRAS G12V mutant was calculated as selective index, which indicated tolerability and safety profile. Disruption of WT KRAS/HRAS/NRAS-BRAF complex by compounds was detected respectively. In assay buffer containing 25 mM HEPES (PH-7.4,4-(2-hydroxyethyl)-1-piperazineethanesulfonic acid, Thermo, 15630080), 0.002% Tween20, 0.1% BSA, 100 mM NaCl, 5 mM MgCl2, 10 μM GMPPNP (Guanosine 5′-[β,γ-imido]triphosphate trisodium salt hydrate, Sigma, G0635), tagless CYPA and GMPPNP loaded 6His-RAS proteins, and GST-BRAF^RBD were mixed in a well of a 384-well assay plate at final concentrations of 50 nM, 6.25 nM and 1 nM, respectively. Compound was present in plate wells as a 16-point 3-fold dilution series starting at a final concentration of 10 μM and incubated for 3 hours. A mixture of MAb Anti-6His-XL665 (Cisbio, 61HISXLB) and Mab anti-GST-TB cryptate (Cisbio, 61GSTTLB) was then added at a final concentration of 6.67 nM and 0.21 nM, respectively, and the plate was incubated for an additional 1.5 hours. TR-FRET signal was read on a PHERstar FSX microplate reader (Ex320 nm, Em 665/615 nm). Compounds that facilitate disruption of the RAS-BRAF complex were identified as those eliciting a decrease in the TR-FRET ratio relative to DMSO control wells.

The target in a further series is WT KRAS-BRAF complex (Homo sapiens (Human), UniProt P01116+P62937). The series is described as follows: WT KRAS-BRAF with CYPA interaction assay (TR-FRET). The format is biochemical. To be noted: WT KRAS. The procedure:
as §1
(TR-FRET usually uses a lanthanide donor and a delayed reading to cut background.)

The target in another series is WT HRAS-BRAF complex (Homo sapiens (Human), UniProt P01112+P62937). The experiment in a line: WT HRAS-BRAF with CYPA interaction assay (TR-FRET). The format is biochemical. Conditions: WT HRAS. The procedure:
as §1

The next series addresses WT NRAS-BRAF complex (Homo sapiens (Human), UniProt P01111+P62937). The experiment in a line: WT NRAS-BRAF with CYPA interaction assay (TR-FRET). The class given is biochemical. Conditions: WT NRAS. The procedure:
as §1

Series [1] concerns phosphorylation of ERK, KRAS G12C in NCI-H358 cells. The series is described as follows: pERK inhibition assay. The class given is cell-based. Conditions: Homo sapiens, NCI-H358, 4 h. A digest of the protocol: (§2)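 NCI-H358 (KRAS G12C), AGS (G12D) and SW620 (G12V) cells plated overnight, then treated with compound for 4 h in 0.5% DMSO. After fixing and methanol permeabilisation, phospho-ERK was detected by in-cell ELISA (HRP/TMB, OD450). IC50 from a 4-parameter sigmoidal fit.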

The subject of series [2] is phosphorylation of ERK, KRAS G12D in AGS cells. The experiment in a line: pERK inhibition assay. The format is cell-based. Conditions: 4 hours. In outline: as §2
Series [3] has as its system phosphorylation of ERK, KRAS G12V in SW620. The series is described as follows: pERK inhibition assay. The format is cell-based. Conditions: Homo sapiens, SW-620, 4 h, SW620 cells. A digest of the protocol: as §2

Bounds are passed on as bounds.

Sequence of WT HRAS-BRAF complex (P01112 whole entry, looked up): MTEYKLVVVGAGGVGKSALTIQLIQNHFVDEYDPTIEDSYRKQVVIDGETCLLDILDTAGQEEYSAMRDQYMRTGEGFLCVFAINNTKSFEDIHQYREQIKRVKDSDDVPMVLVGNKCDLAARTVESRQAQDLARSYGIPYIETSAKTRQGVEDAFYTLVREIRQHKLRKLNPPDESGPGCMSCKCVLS
Sequence of WT HRAS-BRAF complex (P62937 whole entry, looked up): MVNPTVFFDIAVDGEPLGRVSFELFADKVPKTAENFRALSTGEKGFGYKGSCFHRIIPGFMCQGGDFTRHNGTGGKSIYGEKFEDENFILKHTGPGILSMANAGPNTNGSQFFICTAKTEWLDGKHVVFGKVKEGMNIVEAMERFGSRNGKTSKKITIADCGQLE
Sequence of KRAS G12V-BRAF complex (P01116-2 other isoform, or with tags, fused parts or gaps G12V): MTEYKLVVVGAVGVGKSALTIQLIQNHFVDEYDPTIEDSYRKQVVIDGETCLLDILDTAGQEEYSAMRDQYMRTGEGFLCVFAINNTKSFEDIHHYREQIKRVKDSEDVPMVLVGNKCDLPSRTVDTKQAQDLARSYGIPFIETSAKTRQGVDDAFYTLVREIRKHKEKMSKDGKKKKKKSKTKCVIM
Sequence of KRAS G12V-BRAF complex (P62937 whole entry): as the sequence (P62937 whole entry, looked up) above
Sequence of WT KRAS-BRAF complex (P01116-2 whole entry, looked up): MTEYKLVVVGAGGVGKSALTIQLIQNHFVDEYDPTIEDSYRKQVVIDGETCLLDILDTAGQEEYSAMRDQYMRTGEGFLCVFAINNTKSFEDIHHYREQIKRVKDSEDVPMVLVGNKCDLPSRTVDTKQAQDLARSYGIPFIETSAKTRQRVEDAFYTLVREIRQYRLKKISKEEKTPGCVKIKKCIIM
Sequence of WT KRAS-BRAF complex (P62937 whole entry, looked up): as the sequence (P62937 whole entry, looked up) above
Sequence of WT NRAS-BRAF complex (P01111 whole entry, looked up): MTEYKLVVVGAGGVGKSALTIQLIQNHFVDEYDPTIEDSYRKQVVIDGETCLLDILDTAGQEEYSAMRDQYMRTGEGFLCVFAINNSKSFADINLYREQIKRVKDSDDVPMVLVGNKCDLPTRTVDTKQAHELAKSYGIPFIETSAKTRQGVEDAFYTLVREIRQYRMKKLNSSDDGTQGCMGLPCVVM
Sequence of WT NRAS-BRAF complex (P62937 whole entry, looked up): as the sequence (P62937 whole entry, looked up) above

For the molecule `CO[C@@H](C)c1ncc(N2CCN(C)CC2)cc1-c1c2c3cc(cc4c3n1CCC4)-c1csc(n1)C[C@H](NC(=O)[C@H]1[C@H](C)[C@@H]1C)C(=O)N1CCC[C@H](N1)C(=O)OCC(C)(C)C2` (atropisomer, axis not shown; (M)) [Example 24, (1r,2R,3S)-N-[(7S,13S)-(20M)-20-[2-[(1S)-1-methoxyethyl]-5-(4-methylpiperazin-1-yl)-3-pyridyl]-17,17-dimethyl-8,14-dioxo-15-oxa-4-thia-9,21,30,31-tetrazahexacyclo[23.3.1.1^2,5.1^9,13.0^19,27.0^21,26]hentriaconta-1 (28),2,5 (31), 19,25 (29),26-hexaen-7-yl]-2,3-dimethyl-cyclopropanecarboxamide], the “Hepatic clearance (Human)” value in the series with human hepatocytes is listed as 3.4 mL/min/kg. Also, the IC50 (usually the concentration needed to halve the response being measured) at KRAS G12V-BRAF complex was 7 nM; on WT KRAS-BRAF complex, 32 nM; at WT HRAS-BRAF complex, 38 nM; on WT NRAS-BRAF complex it was 35 nM; in series [1] it was under 0.6 nM; in series [2], 0.9 nM. In series [3], the IC50 is under 0.6 nM.

With `CCn1c(-c2cc(N3CCN(C)CC3)cnc2[C@H](C)OC)c2c3cc(ccc31)-c1csc(n1)C[C@H](NC(=O)[C@H]1C[C@@H]1C)C(=O)N1CCC[C@H](N1)C(=O)OCC(C)(C)O2` [Example A122, reference compound], the “Hepatic clearance (Human)” value in the series with human hepatocytes is reported as 9 mL/min/kg. Besides, the concentration for half-maximal inhibition (IC50) on KRAS G12V-BRAF complex was found to be 8 nM; against WT KRAS-BRAF complex, 16 nM; against WT HRAS-BRAF complex it was 10 nM; on WT NRAS-BRAF complex it was 10 nM.
